Source: publication PMC10587169, “Tuning aminopolycarboxylate chelators for efficient complexation of trivalent actinides” (Scientific Reports, 2023)

Experiments:
[1] = Potentiometric complexometric titration; type: binding; conditions: for logβ101 (ML), Nd / logβ111 (MHL), Nd / logK111, Dy / logK111, Eu / logK111, Ho / logK111, La / logK111, Lu / logK111, Nd / logK111, Tb / logβ101 (ML), Dy / logβ101 (ML), Eu / logβ101 (ML), Ho / logβ101 (ML), La / logβ101 (ML), Lu / logβ101 (ML), Tb / logβ111 (MHL), Dy / logβ111 (MHL), Eu / logβ111 (MHL), Ho / logβ111 (MHL), La / logβ111 (MHL), Lu / logβ111 (MHL), Tb: potentiometry, I = 2.0 M (Na+/H+)ClO4, T = 20.0 °C; for logK111, Dy / logK111, Eu / logK111, Ho / logK111, La / logK111, Lu / logK111, Nd / logK111, Tb / logβ101 (ML), Dy / logβ101 (ML), Eu / logβ101 (ML), Ho / logβ101 (ML), La / logβ101 (ML), Lu / logβ101 (ML), Tb / logβ111 (MHL), Dy / logβ111 (MHL), Eu / logβ111 (MHL), Ho / logβ111 (MHL), La / logβ111 (MHL), Lu / logβ111 (MHL), Tb: ±3σ
Procedure: All potentiometric titrations were run using a Mettler Toledo T90 autotitrator equipped with an Orion Ross Semi-micro glass electrode with the junction stabilization solution changed to 5.0 M NaCl to prevent precipitation with perchlorate media. All titrations were performed under a hydrated nitrogen atmosphere. The forward titration measurements (acidic titrand, basic titrant) of H4octapa in nitrate electrolyte medium were performed as described previously due to the limited solubility of this ligand in a 2 M (Na^+/H^+)ClO4 medium. Acid dissociation constants of H4octapa in perchlorate electrolyte medium were also determined by titrating in reverse (basic titrand, acidic titrant) to alleviate the solubility concerns. Titrations of H4pypa-peg were performed in reduced-volume glass titration cups (10 mL nominal) due to the limited supply of this ligand. All potentiometric titrations were run in triplicate. The choice of using p[H^+] was explained in Heathman et al.[15], and the calibration of the p[H^+] scale utilized Gran analysis through titration of a strong acid with the base used in the potentiometric titrations[29]–[31]. Potentiometric titration data was modeled and analyzed using Hyperquad2013 to determine acid dissociation and metal complexation stability constants[32],[33].
The coordination of La^3+, Nd^3+, Eu^3+, Tb^3+, Dy^3+, Ho^3+, and Lu^3+ with H4octapa and H4pypa-peg was studied. Figures 4A, B show the potentiometric curves collected when Nd^3+ was titrated with H4octapa and H4pypa-peg, respectively. Both p[H^+] curves show the characteristic buffering region due to deprotonation of metal–ligand complexes when titrated with base. The experimental p[H^+] trend is best represented when considering the presence of MHL(aq) and ML^– complexes as generalized by Eqs. (4) and (5). The progressive formation of the metal complexes throughout the titration is illustrated by species distribution curves, also shown in Figs. 4A, B. The complex formation equilibria are described by the conditional stability constants, β101 and β111, listed in Table 3.

[2] = Spectrophotometric titration; type: binding
Description: Changes in the optical absorption characteristics of Nd^3+ were monitored using a Cary 6000i UV/Vis–NIR Spectrometer (Agilent) using 1 cm semimicro quartz cuvettes (Starna) in double-beam mode, where the ^4I9/2 → ^4G5/2, ^2G7/2 transitions[34] were monitored between 560 and 605 nm with a 0.075 nm interval and 1.0 nm spectral bandwidth. Changes in the optical absorption characteristics of ^243Am^3+ and ^248Cm^3+ were monitored using a Flame-S-VIS–NIR-ES spectrometer coupled to a DH-2000-BAL dual-mode light source (Ocean Optics) with a single 1 cm semimicro quartz cuvette (Starna). The light source and spectrometer were optically coupled to the CUV sample (Ocean Optics) holder using 2 m fiberoptics (200 μm) and the parameters for acquisition were 0.369 nm interval and 1000 scans averaged with an integration time/scan 1.08 ms (total acquisition time ~ 1 s). The complexation of Am^3+ with the ligands was monitored in the 495–525 nm spectral region, looking at the ^7F0′ → ^5L6′ transition[23],[35]. For Cm^3+, ligand complexation was monitored in the 365–410 nm spectral region, looking at the ^8S7/2 → ^2Ji (i = {15}, {13,9}, {11,17}) manifold transitions[24],[25],[36]. Changes in aqueous p[H^+] were monitored throughout each titration step using a Gran-calibrated Orion Ross Semi-micro glass electrode. Baseline correction was applied to all datasets and was typically a simple linear subtraction. However, in the case of the ^248Cm/H4pypa-peg spectra, the tail end of the ligand absorption overlapped the hypersensitive Cm peaks. In this case the background correction was applied using a 5th-order empirical polynomial. Finally, the spectroscopic data was analyzed using the HypSpec software package[33],[37]. Full details of the titrand and titrant solutions for each titration are included in the Supplemental Information.
To further validate the competitive solvent extraction methodology the complexation of Am^3+ with H4octapa and Cm^3+ with H4pypa-peg was studied spectrophotometrically. These titrations monitored the ligand-induced changes on the optical absorption spectra of free Am^3+ at λmax = 503.0 nm, (Fig. 8A) and Cm^3+ at λmax = 375.0, 380.6, 396.5 nm, (Fig. 8C). The presence of both ligands induced new red-shifted absorption signatures in each monitored titration. […] Excellent agreement between the solvent extraction and spectrophotometry was attained for the β101 values for the formation of [Am(octapa)]^− albeit the uncertainty associated with a constant measured using competitive liquid–liquid distribution is rather large and points out the shortcomings of this method. A variance between two analytical methods is larger for [Cm(pypa-peg)]^− possibly due to free ligand absorption interferences.
2. Spectrophotometric titration parameters […]
H4octapa, at p[H+] ≈ 5.0 – 6.0. […]
Am3+: The titrand solution consisting of 0.806 mL of 0.791 mM Am(ClO4)3 at p[H+] = 1.41 was
blended with 0.787 mL of titrant solution containing 0.801 mM Am3+ and 15.09 mM
H4pypa-peg at p[H+] ≈ 5 – 6. […]

[3] = I = 2.0 M (Na+/H+)ClO4 at 20.0 °C (spectrophotometric titration)

Structure (SMILES) | logβ101 (ML), Nd [1] | logβ111 (MHL), Nd [1] | logβ101 (ML), Am3+ [2, 3] | logβ111 (MHL), Am3+ [2, 3] | logK111, Dy [1] | logK111, Eu [1] | logK111, Ho [1] | logK111, La [1] | logK111, Lu [1] | logK111, Nd [1] | logK111, Tb [1] | logβ101 (ML), Dy [1] | logβ101 (ML), Eu [1] | logβ101 (ML), Ho [1] | logβ101 (ML), La [1] | logβ101 (ML), Lu [1] | logβ101 (ML), Tb [1] | logβ111 (MHL), Dy [1] | logβ111 (MHL), Eu [1] | logβ111 (MHL), Ho [1] | further results
O=C(O)CN(CCN(CCN(CC(=O)O)CC(=O)O)CC(=O)O)CCN(CC(=O)O)CC(=O)O [H6ttha, triethylenetetraamine-N,N,N',N'',N''',N'''-hexaacetic acid] | 21.78(2) | 25.42(2) | 23.25(3) | 27.02(3) | – | – | – | – | – | – | – | – | – | – | – | – | – | – | – | – | logβ121 (MH2L), Nd3+ ([1]; determined using potentiometry, I = 2.0 M (Na+/H+)ClO4 at 20.0 °C): 27.74(3); logβ121 (MH2L), Am3+ [2, 3]: 28.84(2)
O=C(O)CN(Cc1cc(-c2cn(CCOCCOCCO)nn2)cc(CN(CC(=O)O)Cc2cccc(C(=O)O)n2)n1)Cc1cccc(C(=O)O)n1 [H4pypa-peg, 6,6'-((((4-(1-(2-(2-(2-hydroxyethoxy)ethoxy)ethyl)-1H-1,2,3-triazol-4-yl)pyridine-2,6-diyl)bis–(methylene))bis–((carboxymethyl)azanediyl))bis–(methylene)) dipicolinic acid] | 18.20 (2) | 20.43 (2) | – | – | 1.97 (2) | 1.96 (1) | 1.80 (4) | 2.32 (1) | 1.87 (5) | 2.22 (2) | 2.02 (2) | 20.05 (1) | 18.91 (1) | 20.50 (4) | 17.86 (1) | 20.72 (5) | 19.75 (2) | 22.03 (2) | 20.87 (1) | 22.31 (4) | logβ111 (MHL), La [1]: 20.18 (1); logβ111 (MHL), Lu [1]: 22.60 (5); logβ111 (MHL), Tb [1]: 21.77 (2)
O=C(O)CN(CCN(CC(=O)O)Cc1cccc(C(=O)O)n1)Cc1cccc(C(=O)O)n1 [H4octapa, 6,6′-((ethane-1,2-diylbis–((carboxymethyl)azanediyl))bis–(methylene))dipicolinic acid] | 18.19 (1) | 19.92 (2) – | – | – | 1.28 (2) | 1.13 (4) | 0.53 (2) | 1.53 (4) | 1.69 (4) | 1.73 (2) – | 1.04 (7) | 18.48 (2) | 18.49 (2) | 18.57 (2) | 17.77 (2) | 17.97 (3) | 18.55 (2) | 19.76 (1) | 19.62 (4) | 19.10 (1) | logβ111 (MHL), La [1]: 19.30 (4); logβ111 (MHL), Lu [1]: 19.66 (4); logβ111 (MHL), Tb [1]: 19.59 (7); logβ101 (ML), Am3+ ([2]; spectrophotometrically measured, I = 2.0 M (Na+/H+)NO3, T = 25 ± 1 °C, ±3σ): 19.28 (1)
O=C(O)CN(CCN(CC(=O)O)CC(=O)O)CCN(CC(=O)O)CC(=O)O [H5dtpa, diethylenetriamine-N,N,N',N'',N''-pentaacetic acid] | – | – | 21.45(1) | 22.62(2) | – | – | – | – | – | – | – | – | – | – | – | – | – | – | – | – | –
